In article PMC9676650, “Binding pocket stabilization by high-throughput screening of yeast display libraries” (Frontiers in Molecular Biosciences, 2022) one finds Kd data, which are given here for one molecule.

Substitutions are numbered along the chain they refer to.

One assay concerns the target T1, FKBP51 WT (Homo sapiens, UniProt Q13451).
T1 construct: made in house; host or cells: E. coli BL21 (DE3)
T1 sequence (Q13451 1-140): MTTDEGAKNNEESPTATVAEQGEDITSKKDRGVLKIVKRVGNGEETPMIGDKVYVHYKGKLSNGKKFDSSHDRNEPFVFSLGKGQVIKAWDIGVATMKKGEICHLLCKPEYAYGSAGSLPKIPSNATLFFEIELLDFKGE
In words: Competitive fluorescence polarization assay, FKBP51 WT. To be noted: 20 nM FKBP51 WT; 1 nM FK [431]-TA tracer; 30 min room temperature; fitted as KI in competitive binding model; read-out: Kd-value (ligand binding constant, competitive fluorescence polarization). An excerpt: (§1) All ligands and tracers used for fluorescence polarization assays had purities of more than 95%. The following ligands and tracers were used for fluorescence polarization and FACS screening experiments: •SAFit-FL tracer (1): Fluorescein conjugated analog of the iFit ligand class. •Mcyc-TA tracer (2): TAMRA conjugated macrocyclic ligand (5). •FK [431]-TA tracer (3): TAMRA conjugated FK [431] ligand (6). •SAFit1 ligand (4): analog of the iFit ligand class. •macrocyclic ligand (5):macrocyclic analog of the SAFit class ligands. •FK [431] ligand (6):bicyclic analog of the immunosuppressive drug FK506
(§2) In order to rule out artifacts introduced by the fluorophore of the tracers, competitive fluorescence polarization assays were carried out. Therefore, a serial dilution of an FK [431] ligand (6), SAFit1 (4), or a macrocyclic ligand 5) (Supplementary Figure S8) in assay buffer was placed in a 384-well assay plate. To the compounds, a mixture of the respective protein (20 nM WT, 10–40 nM G64S or 80–100 nM D68Y) and 1 nM of the FK [431]-TA in assay buffer was added. After incubating for 30 min at room temperature, the fluorescence polarization was measured. […]

Another assay addresses T2, FKBP51 variant G64S (Homo sapiens, UniProt Q13451, G64S).
T2 construct: made in house; host or cells: E. coli BL21 (DE3)
T2 sequence (Q13451 1-140 G64S): T1 sequence (Q13451 1-140) with G64S
In words: Competitive fluorescence polarization assay, FKBP51 G64S. To be noted: 10-40 nM FKBP51 G64S; 1 nM FK [431]-TA tracer; 30 min room temperature; fitted as KI in competitive binding model; read-out: Kd-value (ligand binding constant, competitive fluorescence polarization).
Source text: as §1, §2
For orientation: Fluorescence polarisation rises when a labelled molecule tumbles more slowly, as on binding a larger partner.

The target in a further assay is T3, FKBP51 variant D68Y (Homo sapiens, UniProt Q13451, D68Y).
T3 construct: made in house; host or cells: E. coli BL21 (DE3)
T3 sequence (Q13451 1-140 D68Y): T1 sequence (Q13451 1-140) with D68Y
Briefly: Competitive fluorescence polarization assay, FKBP51 D68Y. To be noted: 80-100 nM FKBP51 D68Y; 1 nM FK [431]-TA tracer; 30 min room temperature; fitted as KI in competitive binding model; read-out: Kd-value (ligand binding constant, competitive fluorescence polarization).
Source text: as §1, §2

Broadly, the Kd is a measure of binding affinity in units of concentration. As to `COc1ccc(CC[C@@H](OC(=O)[C@@H]2CCCCN2C(=O)[C@H](c2cc(OC)c(OC)c(OC)c2)C2CCCCC2)c2cccc(OCC(=O)O)c2)cc1OC` [SAFit1], the figures for the Kd on FKBP51 WT, at FKBP51 variant G64S and on FKBP51 variant D68Y were 4.8 ± 0.4 nM, 0.5 ± 0.2 nM and 0.2 ± 0.5 nM, respectively.
